Like-named read-outs stand apart in the source and are kept apart here. Non-standard residues stand in square brackets, D forms with d. Residues, ends and D or L forms follow the SMILES beside them.
How the values were obtained:
[1] = tested on: cell-mediated immune system response; assay: Amplifier (immunological) activity of HPLC fractions and their constituents; parameters: species or system human; details: for immunological activity as assayed by DH test: moieties in effluents of Example 5 process; for amplifier / immunological activity: HPLC fractions of human leukocyte dialysate and constituents
Source text: Absorbance was monitored at […], 0.1 Absorbance Units=Full Scale. […] The first peak was lower than the second and third, in terms of absorbance units, and is believed to be an artifact of the system associated with the ethanol solvent or due to elution of salts. The second and third peaks varied in relative height from preparation to preparation.
Other moieties found present in effluents of this process were Gly-Gly, Ser-Phe, and Ala, along with possibly other amino acid residues as well.

[2] = tested on: DH response to tetanus toxoid (TT); parameters: species or system human; details: in vivo
[3] = tested on: L1210 leukemia cells in BDF1 strain mice; assay: Mouse L1210 leukemia survival test; assay type: in vivo; details: 2 fg intradermally every third day (about 100 fg/kg); 5 mice per group; present-tense example
Method: Ten BDF1 strain mice are divided into two groups of 5. Each mouse is injected with 100 L1210 leukemia cells from ascitic fluid of DBA/2 host mice.
(§1) The mice in Group I (control) are thereafter given injections of 0.1 ml sterile saline every third day. The mice in Group II are thereafter given intradermal injections of 2 fg of synthetic YG of Example 20 in 0.1 ml of sterile saline, every third day. The mice weigh approximately 20 g each, so that 2 fg represents approximately 100 fg/kg of bodyweight.
as §1, with “synthetic Tyr-D-Ala-Gly” for “synthetic YG”, “Example 25” for “Example 20”, “mice were” for “mice weigh”

[4] = tested on: IL-2 receptors on T-helper cells; assay: T-helper cell IL-2 receptor expression assay; assay type: cell-based, human
[5] = tested on: gamma-interferon production in normal cells; assay: Antigen-induced production of gamma interferon; assay type: cell-based, human
Source text: The LIF assay is described in Gottlieb et al., Modulation of Human T Cell Production, J. Immunology 132: 256-260 (Jan. 1984), at p. 257. Protocols for the other assays are believed to be known to those skilled in this art. A convenient reference for the gamma-interferon assay in Sinha et al., Bio/Technology 6:810 (1988), at pp. 814-15.
Preparations of 0.1 Lf /ml and 1.0 Lf /ml TT were used to determine the effect of Beta-1.11 (endogenous YG-material) on production of gamma-interferon in normal cells. As before, serial dilutions of Beta-1.11 were prepared from 46.5 pM to 91 fM.

Question: For `C[C@H](N)C(=O)O` [Ala], which “immunological activity as assayed by DH test” value [1] is on record?
Answer: None of these other moieties appeared to possess immunological activity

Question: Which “amplifier effect in DH assay” value [2] does the source give for `C[C@@H](NC(=O)[C@@H](N)Cc1ccc(O)cc1)C(=O)NCC(=O)O` [Tyr-D-Ala-Gly, L-tyrosyl-D-alanyl-L-glycine] (H-Tyr-[dA]-Gly-OH) here?
Answer: slightly better than that observed in Table 1 of Gottlieb U.S. Pat. No. 4,699,898

Question: What about the “skin reaction without TT” value [2] of the same compound?
Answer: No reaction is observed

Question: And the “mean survival longer than control group” value [3]?
Answer: approximately 2.8 days

Question: And the “concentration giving the highest figure for high density of receptors” value [4]?
Answer: approximately 2 fM

Question: And the “effect relative to endogenous material” value [4]?
Answer: approximately an order of magnitude less in effect than endogenous YGG-material

Question: And the “increase of IL-2 receptors (high density maximum), factor” value [4]?
Answer: approximately 1.5

Question: What about the “concentration at maximum gamma-interferon production” value ([5]; 1.0 Lf/ml TT) of the same compound?
Answer: approximately 20 fM

Question: And the “potency relative to endogenous YG-material” value ([5]; gamma interferon assay, human sources not identical)?
Answer: an order of magnitude more potent

Question: Which “potency relative to corresponding endogenous amplifier materials Beta-1.11 and Beta-1.12” value [2] does the source give for `N[C@@H](Cc1ccc(O)cc1)C(=O)NCC(=O)NCC(=O)O` [YGG, L-tyrosylglycylglycine] (H-Tyr-Gly-Gly-OH) here?
Answer: an order of magnitude less potent

Question: For `N[C@@H](Cc1ccccc1)C(=O)O` [phenylalanine], which “amplifier / immunological activity” value [1] is on record?
Answer: found to lack intrinsic amplifier activity

Question: `N[C@@H](Cc1ccc(O)cc1)C(=O)NCC(=O)O` [synthetic YG, L-tyrosylglycine] was tested. Which “potency relative to corresponding endogenous amplifier materials Beta-1.11 and Beta-1.12” value [2] did it give?
Answer: an order of magnitude less potent

Question: And the “mean survival longer than control group” value [3]?
Answer: approximately 2.4 days

Question: What about the “increase of IL-2 receptors (high density maximum), factor” value [4] of the same compound?
Answer: approximately 1.6

Question: And the “concentration giving the highest figure for high density of receptors” value ([4]; TT + serial dilutions)?
Answer: approximately 22 fM

Question: With Gly-Gly as the compound, how does the “amplifier / immunological activity” value [1] read?
Answer: found to lack intrinsic amplifier activity

Question: And the “immunological activity as assayed by DH test” value [1]?
Answer: None of these other moieties appeared to possess immunological activity

Question: Which “immunological activity in DH assay” value [2] does the source give for “Tyr-Gly-Gly-Phe-Ile (YGGFI; printed: Tyr-Gly-Gly-Phe-Ile)” here?
Answer: Significant immunological activity is not observed

Question: And the “molar concentration giving activity comparable to YG, relative to YG in Example 21” value [2]?
Answer: 8-10 orders of magnitude

Reference: US5100663A, “Tyr-Gly compositions useful in increasing immune response” (priority 1990, dated 1992)
